By Emax is commonly meant the maximal effect, on the per cent scale that the assay sets. Usually EC50 stands for the concentration at which the effect is half-maximal.

The text below walks through data of PMC6021034, “Novel FFA1 (GPR40) agonists containing spirocyclic periphery: polar azine periphery as a driver of potency” (Journal of Enzyme Inhibition and Medicinal Chemistry, 2016).

Like-named read-outs stand apart in the source and are kept apart here.

In one assay the target is human GPR40 (Homo sapiens, UniProt O14842). The experiment in a line: Calcium flux (FLIPR, Fluo-8) agonist assay in CHO cells stably expressing human GPR40. The settings on record: for % FFA1 activation at 5 μM: relative to GPR40 activation by 20 μM of GW9509, n = 2. Type of assay: cell-based. The protocol:
Determination of agonistic activity of compounds against FFA1 (GPR40) receptor
CHO cells stably expressing human GPR40 (stable CHO-GPR40 line created at Enamine Ltd., Kyiv, Ukraine) were seeded (12 500 cells/well) into 384-well black-wall, clear-bottom microtiter plates 24 h prior to assay. Cells were loaded for 1 h with fluorescent calcium dye (Fluo-8 Calcium Assay kit, Abcam, ab112129, Cambridge, UK) and tested using fluorometric imaging plate reader (FLIPR Tetra® High Throughput Cellular Screening System, Molecular Devices Corp., Sunnyvale, CA). Maximum change in fluorescence over base line was used to determine agonist response. A potent and selective agonist for FFA1 (GPR40) GW9508 (Selleckchem, S8014) was tested with the test compounds as a positive control. Concentration response curve data were fitted using Molecular Devices ScreenWorks® System Control Software (Molecular Devices). The half-maximal effective concentration was determined from these curves plotted in “% FFA1 activation − log[drug]” coordinates and % maximum efficacy was related to that of the reference compounds GW9508.
For orientation: Calcium flux is commonly read through the fluorescence of an indicator in the cells.

Assay [1] concerns FFA1. More on the design: method as in PMID 24900210. The note with it: cited from earlier work.
In assay [2] the test system is FFA1. The note with it: cited from earlier work.
Setting [3] is: dose-response (% FFA1 activation) mode, read-out: EC50.

human GPR40, sequence (O14842 whole entry): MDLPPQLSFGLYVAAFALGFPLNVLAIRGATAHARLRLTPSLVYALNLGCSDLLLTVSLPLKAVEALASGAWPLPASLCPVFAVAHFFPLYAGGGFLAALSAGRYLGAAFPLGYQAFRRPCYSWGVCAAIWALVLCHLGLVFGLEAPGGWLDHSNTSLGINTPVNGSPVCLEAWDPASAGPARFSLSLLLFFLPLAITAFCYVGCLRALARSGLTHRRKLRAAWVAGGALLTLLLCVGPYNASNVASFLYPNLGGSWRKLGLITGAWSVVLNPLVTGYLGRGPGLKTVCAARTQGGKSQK

As to “3-{4-[(4-{[4-(Pyrazin-2-yloxy)-1-oxa-9-azaspiro[5.5]undec-9-yl]methyl}benzyl)oxy]phenyl}propanoic acid dihydrochloride [Compound 4a]”, the “% FFA1 activation at 5 μM” value at human GPR40 is 32.5%.
As for `Cl.Cl.O=C(O)CCc1ccc(OCc2ccc(CN3CCC4(CC3)CC(Oc3ccccn3)CCO4)cc2)cc1` (stereo not shown) [Compound 4c, 3-{4-[(4-{[4-(Pyridin-2-yloxy)-1-oxa-9-azaspiro[5.5]undec-9-yl]methyl}benzyl)oxy]phenyl}propanoic acid dihydrochloride], the “% FFA1 activation at 5 μM” value at human GPR40 is listed as 61.4%. The Emax at human GPR40 (CHO, maximum efficacy relative to GPR40 activation by 20 μM of GW9509, n = 2) was found to be 61%. Moreover, the EC50 on human GPR40 (Table 2, compounds investigated in this work, read-out: FFA1 EC50) amounted to 0.9 µM.
On to `Cl.Cl.O=C(O)CCc1ccc(OCc2ccc(CN3CCC4(CC3)CC(N3CCCC3)CCO4)cc2)cc1` (stereo not shown) [Compound 4e, 3-[4-({4-[(4-Pyrrolidin-1-yl-1-oxa-9-azaspiro[5.5]undec-9-yl)methyl]benzyl}oxy)phenyl]propanoic acid dihydrochloride], for which the “% FFA1 activation at 5 μM” value at human GPR40 stood at 9.1%. At human GPR40 (setting [3]), the EC50 is more than 20 µM.
Turning to `Cl.Cl.O=C(O)CCc1ccc(OCc2ccc(CN3CCC4(CC3)CC(CC(=O)NCc3ccncc3)CCO4)cc2)cc1` (stereo not shown) [Compound 4h, 3-[4-({4-[(4-{2-Oxo-2-[(pyridin-4-ylmethyl)amino]ethyl}-1-oxa-9-azaspiro[5.5]undec-9-yl)methyl]benzyl}oxy)phenyl]propanoic acid dihydrochloride], the “% FFA1 activation at 5 μM” value on human GPR40 was 10.0%. The EC50 at human GPR40 (setting [3]) was more than 20 µM.
With `Cc1cc(OCCCS(C)(=O)=O)cc(C)c1-c1cccc(COc2ccc3c(c2)OC[C@H]3CC(=O)O)c1` [TAK-875, fasiglifam], in the assay with FFA1 [1], the EC50 was 0.014 µM.
`O=C(O)CCc1ccc(OCc2ccc(CN3CCC4(CCCCO4)CC3)cc2)cc1` [Compound 7]: the EC50 in the assay with FFA1 [2] (reported earlier) is more than 20 µM. In the assay with FFA1 [2] (tested earlier), the “FFA1 agonist activity (in words)” value was “inactive”.
As to `Cl.Cl.O=C(O)CCc1ccc(OCc2ccc(CN3CCC4(CC3)CC(CC(=O)NCc3cccnc3)CCO4)cc2)cc1` (stereo not shown) [Compound 4i, 3-[4-({4-[(4-{2-Oxo-2-[(pyridin-3-ylmethyl)amino]ethyl}-1-oxa-9-azaspiro[5.5]undec-9-yl)methyl]benzyl}oxy)phenyl]propanoic acid dihydrochloride], on human GPR40, the “% FFA1 activation at 5 μM” value was 11.6%. Besides, the EC50 on human GPR40 (setting [3]) is more than 20 µM.
As for `Cl.Cl.O=C(O)CCc1ccc(OCc2ccc(CN3CCC4(CC3)CC(Oc3ccncc3)CCO4)cc2)cc1` (stereo not shown) [Compound 4d, 3-{4-[(4-{[4-(Pyridin-4-yloxy)-1-oxa-9-azaspiro[5.5]undec-9-yl]methyl}benzyl)oxy]phenyl}propanoic acid dihydrochloride], the “% FFA1 activation at 5 μM” value on human GPR40 is on record as 13.6%. Also, on human GPR40 (setting [3]), the EC50 was more than 20 µM.
The corresponding values for `CNC(=O)CC1CCOC2(CCN(Cc3ccc(COc4ccc(CCC(=O)O)cc4)cc3)CC2)C1.Cl` (stereo not shown) [Compound 4g, 3-(4-{[4-({4-[2-(Methylamino)-2-oxoethyl]-1-oxa-9-azaspiro[5.5]undec-9-yl}methyl)benzyl]oxy}phenyl)propanoic acid hydrochloride] are 9.9% and more than 20 µM.
Take `Cl.Cl.O=C(O)CCc1ccc(OCc2ccc(CN3CCC4(CC3)CC(Oc3ncccn3)CCO4)cc2)cc1` (stereo not shown) [Compound 4b, 3-{4-[(4-{[4-(Pyrimidin-2-yloxy)-1-oxa-9-azaspiro[5.5]undec-9-yl]methyl}benzyl)oxy]phenyl} propanoic aciddihydrochloride]: the “% FFA1 activation at 5 μM” value on human GPR40 amounted to 80.0%. The concentration giving a half-maximal response (EC50) at human GPR40 (setting [3]) was 1.62 µM. For the same compound, the “% Efficacy” value on human GPR40 (maximum efficacy relative to GPR40 activation by 20 μM of GW9509, n = 2) turned out to be 80%.
`Cl.Cl.O=C(O)CCc1ccc(OCc2ccc(CN3CCC4(CC3)CC(N3CCOCC3)CCO4)cc2)cc1` (stereo not shown) [Compound 4f, 3-[4-({4-[(4-Morpholin-4-yl-1-oxa-9-azaspiro[5.5]undec-9-yl)methyl]benzyl}oxy)phenyl]propanoic acid dihydrochloride]: the “% FFA1 activation at 5 μM” value at human GPR40 was 10.2%. For the same compound, the EC50 on human GPR40 (setting [3]) is more than 20 µM.
